Converted amounts (≈) assume the structure as drawn. One block for each molecule: values may come before it. The source made the active and inactive calls. No cut-off for these calls is given here.
Legend:
Pseudomonas aeruginosa [1] = test: Antibacterial activity against Pseudomonas aeruginosa PAO1 assessed as inhibition of visible bacterial growth by CLSI based broth-microdilution method; type: functional
Acinetobacter baumannii = test: Antibacterial activity against Acinetobacter baumannii ATCC 17978 assessed as inhibition of visible bacterial growth by CLSI based broth-microdilution method; type: functional
Escherichia coli = test: Antibacterial activity against Escherichia coli ATCC 25922 assessed as inhibition of visible bacterial growth by CLSI based broth-microdilution method; type: functional
HEK293 [2] = test: Cytotoxicity against HEK293 cells assessed as reduction in cell viability at 7 uM; type: toxicity, cell-based; conditions: human, hek293, 7 µM
HepG2 [3] = test: Cytotoxicity against human HepG2 cells assessed as reduction in cell viability; type: functional
HepG2 [4] = test: Cytotoxicity against human HepG2 cells assessed as inhibition of cell vitality at 162 uM; type: functional; set-up: scale not given: the % may be the effect or the level left
Pseudomonas aeruginosa [5] = test: Synergistic antibacterial activity against Pseudomonas aeruginosa PAO1 assessed as fold change in minocycline MIC by checkerboard analysis relative to minocycline alone; type: functional
Pseudomonas aeruginosa [6] = test: Synergistic antibacterial activity against Pseudomonas aeruginosa PAO1 assessed as fold change in doxycycline MIC by checkerboard analysis relative to doxycycline alone; type: functional
Pseudomonas aeruginosa [7] = test: Synergistic antibacterial activity against Pseudomonas aeruginosa PAO1 assessed as fold change in tigecycline MIC by checkerboard analysis relative to Tigecycline alone; type: functional
Pseudomonas aeruginosa [8] = test: Synergistic antibacterial activity against Pseudomonas aeruginosa PAO1 assessed as fold change in eravacycline MIC by checkerboard analysis relative to eravacycline alone; type: functional
Pseudomonas aeruginosa [9] = test: Antibacterial activity against Pseudomonas aeruginosa PA259 assessed as inhibition of visible bacterial growth by CLSI based broth-microdilution method; type: functional
Pseudomonas aeruginosa [10] = test: Antibacterial activity against Pseudomonas aeruginosa PA262 assessed as inhibition of visible bacterial growth by CLSI based broth-microdilution method; type: functional
Pseudomonas aeruginosa [11] = test: Antibacterial activity against Pseudomonas aeruginosa PA264 assessed as inhibition of visible bacterial growth by CLSI based broth-microdilution method; type: functional
Pseudomonas aeruginosa [12] = test: Antibacterial activity against Pseudomonas aeruginosa PA100036 assessed as inhibition of visible bacterial growth by CLSI based broth-microdilution method; type: functional
Pseudomonas aeruginosa [13] = test: Antibacterial activity against Pseudomonas aeruginosa PA114228 assessed as inhibition of visible bacterial growth by CLSI based broth-microdilution method; type: functional
Pseudomonas aeruginosa [14] = test: Antibacterial activity against Pseudomonas aeruginosa PA101243 assessed as inhibition of visible bacterial growth by CLSI based broth-microdilution method; type: functional
Pseudomonas aeruginosa [15] = test: Antibacterial activity against Pseudomonas aeruginosa PA095 assessed as inhibition of visible bacterial growth by CLSI based broth-microdilution method; type: functional
Pseudomonas aeruginosa [16] = test: Antibacterial activity against Pseudomonas aeruginosa PA200 assessed as inhibition of visible bacterial growth by CLSI based broth-microdilution method; type: functional
HEK293 [17] = test: Cytotoxicity against HEK293 cells assessed as reduction in cell viability at 162 uM; type: toxicity, cell-based; conditions: human, hek293, 162 µM
HepG2 [18] = test: Cytotoxicity against human HepG2 cells assessed as reduction in cell viability at 400 uM; type: functional, cell-based

SMILES: NC[C@H]1O[C@H](O[C@H]2[C@H](O)[C@@H](O[C@H]3O[C@H](CO)[C@@H](O)[C@H](N)[C@H]3O)[C@H](N)C[C@@H]2N)[C@H](N)C[C@@H]1O [TOBRAMYCIN]
- MIC (Pseudomonas aeruginosa [1]): 0.5 µg/mL (≈ 1.07 µM)
- MIC (Acinetobacter baumannii): 0.5 µg/mL (≈ 1.07 µM)
- MIC (Escherichia coli): 2 µg/mL (≈ 4.28 µM)

SMILES: CCCCCCCCCCCCNC(=O)c1cn(C2CC2)c2cc(N3CCNCC3)c(F)cc2c1=O.Cl
- MIC (Pseudomonas aeruginosa [1]): > 120 µg/mL
- MIC (Acinetobacter baumannii): > 128 µg/mL
- MIC (Escherichia coli): > 128 µg/mL

SMILES: C[C@H]1c2cccc(O)c2C(=O)C2=C(O)[C@]3(O)C(=O)C(C(N)=O)=C(O)[C@@H](N(C)C)[C@@H]3[C@@H](O)[C@@H]21 [DOXYCYCLINE ANHYDROUS]
- MIC (Pseudomonas aeruginosa [9]): 64 µg/mL (≈ 144 µM)
- MIC (Pseudomonas aeruginosa [10]): > 512 µg/mL
- MIC (Pseudomonas aeruginosa [11]): > 64 µg/mL
- MIC (Pseudomonas aeruginosa [12]): > 128 µg/mL
- MIC (Pseudomonas aeruginosa [13]): 64 µg/mL (≈ 144 µM)
- MIC (Pseudomonas aeruginosa [14]): 16 µg/mL (≈ 36 µM)
- MIC (Pseudomonas aeruginosa [15]): 64 µg/mL (≈ 144 µM)
- MIC (Pseudomonas aeruginosa [16]): 1 µg/mL (≈ 2.25 µM)

SMILES: CN(C)c1ccc(O)c2c1C[C@H]1C[C@H]3[C@H](N(C)C)C(O)=C(C(N)=O)C(=O)[C@@]3(O)C(O)=C1C2=O [MINOCYCLINE]
- MIC (Pseudomonas aeruginosa [9]): 128 µg/mL (≈ 280 µM)
- MIC (Pseudomonas aeruginosa [10]): 256 µg/mL (≈ 560 µM)
- MIC (Pseudomonas aeruginosa [11]): 128 µg/mL (≈ 280 µM)
- MIC (Pseudomonas aeruginosa [12]): 128 µg/mL (≈ 280 µM)
- MIC (Pseudomonas aeruginosa [13]): 256 µg/mL (≈ 560 µM)
- MIC (Pseudomonas aeruginosa [14]): 8 µg/mL (≈ 17.5 µM)
- MIC (Pseudomonas aeruginosa [15]): 64 µg/mL (≈ 140 µM)
- MIC (Pseudomonas aeruginosa [16]): 0.5 µg/mL (≈ 1.09 µM)

SMILES: CN(C)[C@@H]1C(O)=C(C(N)=O)C(=O)[C@@]2(O)C(O)=C3C(=O)c4c(O)c(NC(=O)CN5CCCC5)cc(F)c4C[C@H]3C[C@@H]12 [ERAVACYCLINE]
- MIC (Pseudomonas aeruginosa [9]): 32 µg/mL (≈ 57.3 µM)
- MIC (Pseudomonas aeruginosa [10]): 64 µg/mL (≈ 115 µM)
- MIC (Pseudomonas aeruginosa [11]): 32 µg/mL (≈ 57.3 µM)
- MIC (Pseudomonas aeruginosa [12]): 32 µg/mL (≈ 57.3 µM)
- MIC (Pseudomonas aeruginosa [13]): 16 µg/mL (≈ 28.6 µM)
- MIC (Pseudomonas aeruginosa [14]): 8 µg/mL (≈ 14.3 µM)
- MIC (Pseudomonas aeruginosa [15]): 32 µg/mL (≈ 57.3 µM)
- MIC (Pseudomonas aeruginosa [16]): 0.5 µg/mL (≈ 0.895 µM)

SMILES: CC(=O)NCCCCCCCCCCCCO[C@@H]1[C@@H](O[C@H]2O[C@H](CO)[C@@H](O)[C@H](N)[C@H]2O)[C@H](N)C[C@H](N)[C@H]1O[C@H]1O[C@H](CN)[C@@H](O)C[C@H]1N.Cl.Cl.Cl.Cl.Cl
- MIC (Pseudomonas aeruginosa [1]): > 120 µg/mL
- MIC (Acinetobacter baumannii): > 128 µg/mL
- MIC (Escherichia coli): > 128 µg/mL
- fold change (FC) (Pseudomonas aeruginosa [5]): 4
- fold change (FC) (Pseudomonas aeruginosa [6]): 8
- fold change (FC) (Pseudomonas aeruginosa [7]): 1

SMILES: CN(C)c1cc(NC(=O)CNC(C)(C)C)c(O)c2c1C[C@H]1C[C@H]3[C@H](N(C)C)C(O)=C(C(N)=O)C(=O)[C@@]3(O)C(O)=C1C2=O [TIGECYCLINE]
- MIC (Pseudomonas aeruginosa [9]): 32 µg/mL (≈ 54.6 µM)
- MIC (Pseudomonas aeruginosa [10]): 64 µg/mL (≈ 109 µM)
- MIC (Pseudomonas aeruginosa [11]): 32 µg/mL (≈ 54.6 µM)
- MIC (Pseudomonas aeruginosa [12]): 64 µg/mL (≈ 109 µM)
- MIC (Pseudomonas aeruginosa [13]): 64 µg/mL (≈ 109 µM)
- MIC (Pseudomonas aeruginosa [14]): 8 µg/mL (≈ 13.7 µM)
- MIC (Pseudomonas aeruginosa [15]): 32 µg/mL (≈ 54.6 µM)
- MIC (Pseudomonas aeruginosa [16]): 1 µg/mL (≈ 1.71 µM)

More lines, main results first:

- MIC (Pseudomonas aeruginosa [1]): > 120 µg/mL
- MIC (Acinetobacter baumannii): > 128 µg/mL
- MIC (Escherichia coli): > 128 µg/mL
SMILES: Cl.Cl.Cl.Cl.Cl.Cl.NC[C@H]1O[C@H](O[C@H]2[C@H](OCCOCCOCCOCCNC(=O)c3cn(C4CC4)c4cc(N5CCNCC5)c(F)cc4c3=O)[C@@H](O[C@H]3O[C@H](CO)[C@@H](O)[C@H](N)[C@H]3O)[C@H](N)C[C@@H]2N)[C@H](N)C[C@@H]1O
- Activity (HEK293 [2]): Non-toxic
- Activity (HepG2 [3]): 60%
- Activity (HepG2 [4]): 60%

- MIC (Pseudomonas aeruginosa [1]): > 120 µg/mL
- MIC (Acinetobacter baumannii): > 128 µg/mL
- MIC (Escherichia coli): > 128 µg/mL
SMILES: Cl.Cl.Cl.Cl.Cl.Cl.NC[C@H]1O[C@H](O[C@H]2[C@H](OCCCCCCCCNC(=O)c3cn(C4CC4)c4cc(N5CCNCC5)c(F)cc4c3=O)[C@@H](O[C@H]3O[C@H](CO)[C@@H](O)[C@H](N)[C@H]3O)[C@H](N)C[C@@H]2N)[C@H](N)C[C@@H]1O
- fold change (FC) (Pseudomonas aeruginosa [5]): 4
- fold change (FC) (Pseudomonas aeruginosa [6]): 4
- fold change (FC) (Pseudomonas aeruginosa [7]): 4
- fold change (FC) (Pseudomonas aeruginosa [8]): 4
- Activity (HEK293 [2]): Non-toxic
- Activity (HepG2 [3]): 69%
- Activity (HepG2 [4]): 55%

- MIC (Pseudomonas aeruginosa [1]): > 120 µg/mL
- MIC (Acinetobacter baumannii): > 128 µg/mL
- MIC (Escherichia coli): > 128 µg/mL
SMILES: Cl.Cl.Cl.Cl.Cl.Cl.NC[C@H]1O[C@H](O[C@H]2[C@H](OCc3ccc(-c4ccc(CNC(=O)c5cn(C6CC6)c6cc(N7CCNCC7)c(F)cc6c5=O)cc4)cc3)[C@@H](O[C@H]3O[C@H](CO)[C@@H](O)[C@H](N)[C@H]3O)[C@H](N)C[C@@H]2N)[C@H](N)C[C@@H]1O
- fold change (FC) (Pseudomonas aeruginosa [5]): 16
- fold change (FC) (Pseudomonas aeruginosa [6]): 16
- fold change (FC) (Pseudomonas aeruginosa [7]): 16
- fold change (FC) (Pseudomonas aeruginosa [8]): 16
- Activity (HEK293 [2]): Non-toxic
- Activity (HEK293 [17]): 27%
- Activity (HepG2 [3]): 88%
- Activity (HepG2 [4]): 40%
- Activity (HepG2 [18]): Active
